# Source: patent publication US9416115B2, “Fused heterocyclic compounds as ion channel modulators” (Gilead Sciences, Inc., priority 2013, dated 2016)
# Key:
# hNav1.3 (SCN3A) = target: T1, hNav1.3 (SCN3A) (Homo sapiens, UniProt Q9NY46); experiment: Voltage-dependent inhibition of the Nav1.3 sodium channel; type: cell-based; conditions: voltage-dependent block of peak current, read-out: Nav 1.3-VDB 1 uM
# T1 construct: expressed in transfected cells
# Procedure: HEK-293 cells stably expressing wild-type (WT) hNav1.3 (SCN3A NCBI # NP 001075, SCN1B NCBI # NM 001037.4, SCN2B NCBI # NM 004588.2) were used to record INa. Cells are maintained with standard tissue culture procedures and stable channel expression is maintained with 800 ug/mL G418 and 3 ug/mL Puromycin in the culture medium. Unless otherwise noted, all reagents are purchased from Sigma-Aldrich (St Louis, Mo., U.S.A.).
# Assays measuring Voltage-Dependent Block (VDB) of Nav1.3 are performed on an automated electrophysiology platform, QPatch 16X or QPatch HT (Sophion Bioscience, Copenhagen, Denmark), using the whole cell patch clamp technique to measure currents through the cell membrane. Series resistance compensation is set to 100% and series resistance and whole-cell compensation are performed automatically. Currents stored in the Sophion Bioscience Oracle database (Sophion Bioscience, Copenhagen, Denmark). Analysis is performed using QPatch Assay software and data are compiled in Excel 2010 (Microsoft, Seattle, Wash., U.S.A.).
# The internal (pipette) solution consists of (in mM) 105 CsF, 10 NaF, 20 CsCl, 2 EGTA, 10 HEPES, 10 Dextrose with a pH of 7.35 and osmolarity of 300 mOsmol/kg. The external (bath) solution contains in (mM): 80 NaCl, 60 Choline-Cl, 4 KCl, 1.8 CaCl2, 1 MgCl2, 10 dextrose, 10 HEPES, with a pH of 7.35 and osmolarity of 310 mOsmol/kg. Experiments are carried out at 23-25° C.
# Compound stocks are routinely made by the Gilead Sample Bank in vials to 10 mM in dimethyl sulfoxide (DMSO). In some cases, when compounds are not soluble in DMSO, they are made in 100% ethanol. Stocks are sonicated as necessary. Compounds are diluted in extracellular solution using a MicroLab Nimbus (Hamilton Robotics, Reno, Nev.) to 1 μM in glass vials and transferred to glass well plates before robotic addition to the cells.
# Cells are allowed to stabilize for 10 min after establishment of the whole-cell configuration before current is measured. The test compound is applied 3 times at 120 second intervals to allow for equilibration. Currents were leak subtracted using a P/4 procedure, low-pass Bessel filtered at 5 kHz and digitized at 25 kHz. Results are presented as mean percentage inhibition.
# Voltage-dependent block of Nav1.3 peak current was measured during a voltage step to 0 mV (20 ms) following a voltage step pre-conditioning steps (−55 mV for 10 sec followed by −120 mV for 10 ms). The holding potential was −120 mV and this voltage protocol induces half maximal inactivation of Nav1.3. The voltage protocol for VDB was performed every 45 seconds in the absence and presence of compound and percentage inhibition was calculated with respect to the compound free condition.
# [1] = Plasma concentration in the rabbit ischemia study; type: in vivo, New Zealand rabbits; conditions: iv infusion targeted to 1 uM plasma
# Procedure: (§1) Rabbits were anesthetized with ketamine (35 mg/kg) and xylazine (5 mg/kg) intramuscular injection (im). A tracheotomy was performed and the trachea was intubated with an endotracheal tube. The animal was ventilated with room air supplemented with oxygen using a pressure control animal ventilator (Kent Scientific Corp., Torrington, Conn.) at a respiratory rate of 40 strokes/min and peak inspiration pressure of 10 mmH2O, which was adjusted to keep blood gases and pH within the physiological range (iSTAT clinic analyzer, Heska Corp.; Waukesha, Wis.). The left femoral artery was cannulated for the measurement of blood pressure (BP). Blood samples were also withdrawn from femoral artery. The right external jugular vein was cannulated for drug/vehicle administration. Needle electrodes were inserted subcutaneously into the limbs for recording of the surface electrocardiogram (ECG).
# (§2) Reference electrodes were placed in the open incision of the neck. The body temperature of the animal was monitored via a rectal thermometer and maintained at 37-40° C. by adjusting the surface temperature of the surgical table. Regional ischemia (15 min) was induced by ligating the LAD followed by 15 min of reperfusion caused by releasing the ligation. The heart was excised at the end of the experiment and the LAD was re-ligated. The ischemic area was visualized by perfusing the heart with 1% Evans blue in saline and calculated as a percentage of total ventricular weight. Rabbits with ischemic area less than 10% or larger than 25% were excluded from the analysis. Animals were randomly assigned to vehicle and test compound groups. Test compounds were dissolved in 15% NMP, 10% Solutol and 75% de-ionized water (dH2O). Test compounds were given as an iv infusion at a rate targeted to reach plasma concentrations of 1 μM. After 30 min of compound administration the heart was subjected to 15 min of ischemia followed by 15 min of reperfusion.
# [2] = tested on: Ischemia-Induced ST Segment Elevation in Anesthetized Rabbits; experiment: Ischemia-induced ST segment elevation in anesthetized rabbits; type: in vivo, New Zealand rabbits; conditions: iv infusion; 15 min LAD ischemia after 30 min of compound administration
# Procedure: This study was undertaken to determine the anti-ischemic effects of compounds of the present disclosure in an in vivo rabbit model.
# Female New Zealand rabbits (3.0-4.0 kg) were purchased from Western Oregon Rabbitry. Animals were housed on a 12-h light and dark cycle and received standard laboratory chow and water. All experiments were performed in accordance with the Guide for the Care and Use of Laboratory Animals published by The National Research Council and with the experimental protocol approved by the Institutional Animal Care Committee of Gilead Sciences, Inc.
# as §1
# The heart was exposed via an incision in the 4th intercostal space (4th and/or 5th ribs were cut for a clear surgical vision). The chest was opened and a pericardial cradle was formed using 4 retractors. A coronary artery occluder, comprised of a snare made of 5 cm PE-10 tubing with a 6-0 Prolene polypropylene suture in it, was placed loosely around the left anterior descending artery (LAD) at its origin. Two unipolar electrodes, made with teflon coated silver wire attached to a small patch of filter paper, were attached on the surface of the ischemic and normal regions of the left ventricle to record epicardial electrocardiogram.
# as §2
# T1 sequence (Q9NY46 1-1951 isoform Q9NY46-2): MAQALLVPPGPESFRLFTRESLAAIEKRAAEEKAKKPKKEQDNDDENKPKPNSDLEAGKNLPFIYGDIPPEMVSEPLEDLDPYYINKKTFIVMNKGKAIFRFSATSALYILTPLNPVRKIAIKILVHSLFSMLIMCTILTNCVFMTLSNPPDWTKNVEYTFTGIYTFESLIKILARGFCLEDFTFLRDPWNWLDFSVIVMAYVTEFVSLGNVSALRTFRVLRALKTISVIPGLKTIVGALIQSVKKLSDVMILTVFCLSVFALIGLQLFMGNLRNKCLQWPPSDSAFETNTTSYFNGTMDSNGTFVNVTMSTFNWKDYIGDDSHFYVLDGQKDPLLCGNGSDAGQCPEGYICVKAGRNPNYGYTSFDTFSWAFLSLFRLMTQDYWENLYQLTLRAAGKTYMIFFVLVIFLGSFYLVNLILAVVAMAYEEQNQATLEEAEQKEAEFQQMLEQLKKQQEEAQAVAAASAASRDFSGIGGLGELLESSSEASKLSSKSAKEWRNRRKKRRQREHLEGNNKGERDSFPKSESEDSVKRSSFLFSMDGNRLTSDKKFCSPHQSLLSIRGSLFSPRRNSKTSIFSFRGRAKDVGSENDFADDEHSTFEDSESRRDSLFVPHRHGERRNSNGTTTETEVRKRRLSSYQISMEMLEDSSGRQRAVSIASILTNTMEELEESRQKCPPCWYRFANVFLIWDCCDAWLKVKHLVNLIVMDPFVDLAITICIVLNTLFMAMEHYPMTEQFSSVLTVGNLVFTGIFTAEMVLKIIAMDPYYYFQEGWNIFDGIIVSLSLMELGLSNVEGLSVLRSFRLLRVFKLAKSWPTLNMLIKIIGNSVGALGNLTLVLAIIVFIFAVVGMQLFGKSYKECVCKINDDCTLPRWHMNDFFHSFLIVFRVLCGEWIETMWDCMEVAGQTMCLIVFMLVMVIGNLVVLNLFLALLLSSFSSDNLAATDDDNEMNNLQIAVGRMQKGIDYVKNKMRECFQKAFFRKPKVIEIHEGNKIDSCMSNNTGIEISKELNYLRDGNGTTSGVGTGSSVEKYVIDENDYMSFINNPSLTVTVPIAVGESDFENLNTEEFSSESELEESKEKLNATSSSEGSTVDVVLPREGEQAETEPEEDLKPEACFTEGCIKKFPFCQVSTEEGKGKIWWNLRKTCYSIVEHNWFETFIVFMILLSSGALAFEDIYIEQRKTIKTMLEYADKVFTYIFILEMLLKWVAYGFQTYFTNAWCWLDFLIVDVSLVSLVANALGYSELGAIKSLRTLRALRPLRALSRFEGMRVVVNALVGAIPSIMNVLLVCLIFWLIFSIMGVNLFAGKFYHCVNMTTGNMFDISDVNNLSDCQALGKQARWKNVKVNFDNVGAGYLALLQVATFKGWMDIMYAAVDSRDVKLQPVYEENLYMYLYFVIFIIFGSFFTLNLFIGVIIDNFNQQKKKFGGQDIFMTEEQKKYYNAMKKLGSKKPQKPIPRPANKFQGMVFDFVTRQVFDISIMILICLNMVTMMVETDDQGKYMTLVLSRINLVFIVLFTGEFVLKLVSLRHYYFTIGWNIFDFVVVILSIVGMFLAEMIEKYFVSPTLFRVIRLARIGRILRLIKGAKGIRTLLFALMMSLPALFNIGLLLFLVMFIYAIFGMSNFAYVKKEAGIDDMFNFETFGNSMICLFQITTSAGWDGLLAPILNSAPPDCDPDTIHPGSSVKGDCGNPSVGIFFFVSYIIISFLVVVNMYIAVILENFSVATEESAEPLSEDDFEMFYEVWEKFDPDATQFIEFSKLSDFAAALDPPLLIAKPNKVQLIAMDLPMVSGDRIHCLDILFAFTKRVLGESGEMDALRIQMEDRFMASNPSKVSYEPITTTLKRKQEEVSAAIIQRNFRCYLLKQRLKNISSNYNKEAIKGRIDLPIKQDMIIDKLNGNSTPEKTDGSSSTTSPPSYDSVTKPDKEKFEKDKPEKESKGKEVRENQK
# T1 sequence (Q07699 19-218 partner): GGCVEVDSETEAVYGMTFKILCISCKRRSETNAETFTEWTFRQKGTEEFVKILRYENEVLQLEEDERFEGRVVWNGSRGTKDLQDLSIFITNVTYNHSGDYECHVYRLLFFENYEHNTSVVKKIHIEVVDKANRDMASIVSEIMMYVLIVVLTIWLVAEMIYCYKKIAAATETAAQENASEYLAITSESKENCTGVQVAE
# T1 sequence (O60939 30-215 partner): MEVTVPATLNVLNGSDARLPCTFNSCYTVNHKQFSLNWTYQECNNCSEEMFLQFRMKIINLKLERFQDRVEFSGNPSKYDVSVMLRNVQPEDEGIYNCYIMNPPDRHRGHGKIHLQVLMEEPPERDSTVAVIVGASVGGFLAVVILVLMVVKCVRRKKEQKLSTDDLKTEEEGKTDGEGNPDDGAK
Structure (SMILES),inhibition at 1 µM (hNav1.3 (SCN3A)) [%],Plasma concentration [1] [µM],Rabbit ST Segment (Percent reduction) [2] [Percent reduction]
"O=C1CC[C@H](COc2noc3ccc(-c4ccc(OC(F)(F)F)cc4)cc23)N1 [Example 61, (R)-5-(((5-(4-(trifluoromethoxy)phenyl)benzo[d]isoxazol-3-yl)oxy)methyl)pyrrolidin-2-one]",8.6,–,–
"FC1(F)Oc2ccc(-c3ccc4onc(OCc5ncccn5)c4c3)cc2O1 [Example 30, 5-(2,2-difluorobenzo[d][1,3]dioxol-5-yl)-3-(pyrimidin-2-ylmethoxy)benzo[d]isoxazole]",21.5,–,–
"Cc1cc(OC(F)(F)F)ccc1-c1cc2c(OCc3ncccn3)noc2cc1C [Example 29, 6-methyl-5-(2-methyl-4-(trifluoromethoxy)phenyl)-3-(pyrimidin-2-ylmethoxy)benzo[d]isoxazole]",39.5,–,–
"FC(F)(F)COc1ccc(-c2ccc3onc(OCc4ncccn4)c3c2)cn1 [Example 21, 3-(pyrimidin-2-ylmethoxy)-5-(6-(2,2,2-trifluoroethoxy)pyridin-3-yl)benzo[d]isoxazole]",11.2,0.4,66
"COc1cc(-c2ccc(C(F)(F)F)cc2F)cc2c(OCc3ncccn3)noc12 [Example 24, 5-(2-fluoro-4-(trifluoromethyl)phenyl)-7-methoxy-3-(pyrimidin-2-ylmethoxy)benzo[d]isoxazole]",< 5,–,–
"COc1cc(-c2ccc(OC(F)(F)F)cc2C)cc2c(OCc3ncccn3)noc12 [Example 25, 7-methoxy-5-(2-methyl-4-(trifluoromethoxy)phenyl)-3-(pyrimidin-2-ylmethoxy)benzo[d]isoxazole]",12.3,–,–
"FC(F)(F)Oc1ccc(-c2ccc3onc(OCc4cn5ccccc5n4)c3c2)cc1 [Example 51, 3-(imidazo[1,2-a]pyridin-2-ylmethoxy)-5-(4-(trifluoromethoxy)phenyl)benzo[d]isoxazole]",26.6,–,–
